# Measured values taken from US8076368B2, “Percutaneous absorption type cerebral protective agent” (Lead Chemical Co., Ltd,, priority 2003, dated 2011).
# Tested on: rat-transient focal cerebral ischemia model
# Assay: Rat-transient focal cerebral ischemia model (middle cerebral artery closure 2 h, TTC staining)
# Assay type: in vivo
# Details: injectable solution, intravenously two times (immediately after and 30 minutes after restoration of blood flow), 3 mg/kg
smiles,measurement,value
CC1=NN(c2ccccc2)C(=O)C1 [3-methyl-1-phenyl-2-pyrazolin-5-one],effect on area of cerebral infarction compared with the control group (in words),almost same as that of the control group
